Experiment: molar heat capacity at constant pressure
Details: 101.33 kPa, Crystal, Small sample (50 mg) DSC

[F-].[Na+] [sodium fluoride]
Details	molar heat capacity at constant pressure [J/K/mol]
630.6 K	58.08
645.6 K	58.11
675.7 K	59.55
690.6 K	59.36
720.6 K	58.15
735.5 K	59.11
750.6 K	58.85
765.6 K	59.28
795.6 K	58.36
825.5 K	58.26
840.4 K	58.49
855.6 K	59.14
870.6 K	58.37
885.5 K	59.37
900.5 K	59.7
907.5 K	59.76
915.5 K	60.11
922.3 K	60.21
937.4 K	60.58
945.5 K	59.64
952.5 K	59.98
960.6 K	60.43
967.5 K	60.92
975.4 K	59.89
982.6 K	60.11
990.5 K	61.01
997.5 K	60.91
1012.6 K	61.02
1027.6 K	60.56
1042.6 K	61.86
1057.7 K	61.63
1072.7 K	62.08
1087.8 K	62.41
1102.9 K	62.25

Reference: the NIST ThermoML archive (doi:10.1016/j.jct.2006.03.002)
